Experimental data as given in US12492223B2, “Peptide compositions capable of binding lanthionine synthetase C-like protein (LanCl) and uses thereof” (priority 2021, dated 2025).
Several values for one entry are separate records, joined by “and”; a condition that tells them apart may be missing. Equal entries are not always repeated. Where two headings read alike, the source gives them in different places. Positions of bridges follow the written chain, without caps; N, C: chain ends. No end group written: not given here.

Legend:
HKx31 (H3N2) = format: in vivo, mice; design: key to PMN activity score / Viral titre activity score / BAL IL-6 activity score: 0: inactive; 1: less active than the peptide of SEQ ID NO:38; 2: comparable or more active than the peptide of SEQ ID NO:38; conditions: for IL-6 levels in the BAL fluid / viral titres: 10 mg/kg single dose
Chung model rats = experiment: In vivo model of neuropathic pain (II): spinal nerve ligation (Chung) model, paw withdrawal threshold; design: species or system rat; conditions: mean ± SEM, n=6
Procedure: The spinal nerve ligation (Chung) model was prepared as described in Example 4, above. Briefly, sixty-four adult male Sprague-Dawley rats, 8-9 weeks old, weighing 250-350 g at the time of surgery, were purchased from Charles River UK Ltd. The animals were housed in groups of 4 in an air-conditioned room on a 12-hour light/dark cycle. Food and water were available ad libitum. Animals were allowed to acclimatise to the environment for experiments for three days by leaving them on a raised metal mesh for at least 40 minutes. The baseline paw withdrawal threshold (PWT) was examined using a series of graduated von Frey hairs for 3 consecutive days before surgery and re-assessed on the 7th day after surgery and on the 12th to 14th day after surgery before drug dosing.
Each rat was anaesthetized with 5% isoflurane mixed with oxygen (2 L per min) followed by an intramuscular (i.m.) injection of ketamine 60 mg/kg plus xylazine 10 mg/kg. The back was shaved and sterilized with povidone-iodine. The animal was placed in a prone position and a para-medial incision was made on the skin covering the L4-6 level. The L5 spinal nerve was carefully isolated and tightly ligated with 6/0 silk suture. The wound was then closed in layers after a complete haemostasis. A single dose of antibiotics (Amoxipen, 15 mg/rat, i.p.) was routinely given for prevention of infection after surgery. The animals were placed in a temperature-controlled recovery chamber until fully awake before being returned to their home cages.
Animals with validated neuropathic pain state were randomly divided into 4 experimental groups: Vehicle (5% DMSO first then in 0.9% saline), 3 mg/kg LAT9997, 3 mg/kg LAT9997×1, and 3 mg/kg LAT1233×1. Each group contained 6 animals.
RSVEGS (SEQ ID NO:9; LAT9997), SVEGS (SEQ NO: 62; LAT9997×1) and ALNSS (SEQ ID NO:63; LAT1233×1) were dissolved in 5% DMSO first then in 0.9% saline, which also served as the vehicle control. All compounds were provided from GenScript for Lateral Pharma. All vehicle/compounds were administrated intravenously at 1 ml/kg body weight.
The animals were placed in individual Perspex boxes on a raised metal mesh for at least 40 min. Starting from the filament of lowest force (1 gram (g)), each vFH filament was applied perpendicularly to the centre of the ventral surface of the paw until it slightly bent for 6 seconds. If the animal withdrew or lifted its paw upon stimulation, a filament with force immediately lower than that tested was used. If no response was observed, a filament with force immediately higher was then tested. The lowest amount of force required to induce reliable responses (positive in 2 out of 3 trials) was recorded as the value of the PWT.
PWT was assessed once daily for three days before surgery (pre D1, Pre D2 and D0) and on day 7 following surgery for monitoring the development of mechanical allodynia.
All drug tests were carried out on the 13th to 17th day after surgery. […]
One-way analysis of variance (ANOVA) (IBM statistics SPSS, Version 27) was used for statistical analysis to compare PWT of different groups at the same time points. When appropriate, Fisher's Least Significant Difference (LSD) post-hoc test was used to compare drug treatment groups to the control groups. A paired Student's t-test (Microsoft Excel 365) was used to compare values of different time points in the same group. To characterise the drug-induced change in PWT relative to vehicle, vehicle values were subtracted from the appropriate drug values. The significance level was set at P<0.05.

A549 cells = experiment: A549 proliferation + stress assay (restoration of viability of Taxol-treated cells, CellTiter-Glo); format: cell-based, human; design: key to Estimated Activity in A549 proliferation + stress assay: Inactive: no activity up to 100 μM; WEAK: some or variable restoration of cell viability at 50-100 μM; MODERATE: moderate dose-dependent restoration of cell viability at >25 μM; STRONG: clear dose-dependent restoration of cell viability from 1-5 μM upwards; conditions: for Estimated Activity in A549 proliferation + stress assay: 350 μM Taxol, 16 hours, peptide 1-100 μM
Procedure: An assay was developed that involves stressing cells with a dose of the chemotherapeutic agent, Taxol, that causes a 50% inhibition of cell viability when compared to untreated cells. Peptides were then added to the cell cultures at increasing concentrations to assess their ability to restore the viability of the Taxol-treated cells.
Briefly, A549 cells were cultured in opaque-walled multiwell plates with 50000 A549 cells/well in culture medium (DMEM medium ref 11960-044 Thermoscientific, +10% FBS ref 10270-106 Gibco, Thermoscientific, +1% Na pyruvate ref S8636-100 ML, Sigma, +1%, Glutamax ref35050061, Thermoscientific, +1% Penicillin-Streptomycin, ref 11074440001, Sigma) 100 μl per well for 96-well plates. Control wells containing medium without cells were used to obtain a value for background luminescence. Cells were incubated at 37° C. in 5% CO2 overnight.
100 μL of medium+DMSO+peptides or medium+Taxol+peptides (at the different concentrations) were added to each well and incubated for 16 hours at 37° C. 5% CO2.
Cell morphology, viability and confluency were assessed by phase contrast microscopy. The CellTiter-Glo® Luminescent Cell Viability Assay (G7571, Promega—a homogeneous method to determine the number of viable cells in culture based on quantitation of the ATP present) was then used to quantify the number of metabolically active cells, according to the manufacturer's instructions. 100 μl volume of CellTiter-Glo® Reagent was added to the 100 μL volume of cell culture medium present in each well, Contents were mixed for 2 minutes on an orbital shaker to induce cell lysis and after incubating the plates at room temperature for 10 minutes to stabilize luminescent signal luminescence was recorded with an integration time of 0.5 seconds using a CLARIOstar multi well luminometer (BMG Labtech)

[1] = PMN infiltrate in BAL fluid, […], relative to SEQ ID NO:38, 10 mg/kg
[2] = single 10 mg/kg dose, day 3, relative to SEQ ID NO:38
[3] = 1 hour after 3 mg/kg intravenously, listed as LAT9997
[4] = 2 hours after 3 mg/kg intravenously, listed as LAT9997
[5] = 4 hours after 3 mg/kg intravenously, listed as LAT9997
[6] = Pre-dosing, 3 mg/kg group, listed as LAT9997, 3 mg/kg
[7] = 1 hour after 3 mg/kg intravenously, listed as LAT1233x1
[8] = 1 hour after 3 mg/kg intravenously, listed as LAT1233×1
[9] = 2 hours after 3 mg/kg intravenously, listed as LAT1233x1
[10] = 2 hours after 3 mg/kg intravenously, listed as LAT1233×1
[11] = 4 hours after 3 mg/kg intravenously, listed as LAT1233x1
[12] = 4 hours after 3 mg/kg intravenously, listed as LAT1233×1
[13] = Pre-dosing, 3 mg/kg group, listed as LAT1233x1, 3 mg/kg
[14] = Pre-dosing, 3 mg/kg group, listed as LAT1233×1, 3 mg/kg
[15] = 1 hour after 3 mg/kg intravenously
[16] = 2 hours after 3 mg/kg intravenously
[17] = 4 hours after 3 mg/kg intravenously

Row | Substance | IL-6 levels in the BAL fluid (HKx31 (H3N2)) | viral titres (HKx31 (H3N2); day 3) | BAL IL-6 activity score (HKx31 (H3N2); mouse, in vivo, 10 mg/kg) | PMN activity score (HKx31 (H3N2); mouse, in vivo, 10 mg/kg) | Viral titre activity score (HKx31 (H3N2); mouse, in vivo, 10 mg/kg) | reducing the PMN infiltrate in BAL fluid, compared with the peptide of SEQ ID NO:38 (HKx31 (H3N2); single 10 mg/kg dose) | also measured
1 | 23 (RPVESS) [compound 23] | as effective | effective | 1 | 1 | 2 | relatively less effective | 
2 | 49 (RALNST) [compound 49] | as effective |  | 2 |  |  |  | PMN activity score (HKx31 (H3N2); [1]): 0; Viral titre activity score (HKx31 (H3N2); [2]): 0
3 | 56 (RSVEG) [compound 56] | as effective | effective | 2 | 2 | 2 | as effective | 
4 | RSVEGS [SEQ ID NO: 9] |  |  |  |  |  |  | contralateral Paw withdrawal threshold (Chung model rats; [3]): 15.00 ± 0.00 g; ipsilateral Paw withdrawal threshold (Chung model rats; [3]): 7.83±1.72 g and 7.83 ± 1.72 ^ g; contralateral Paw withdrawal threshold (Chung model rats; [4]): 15.00 ± 0.00 g; ipsilateral Paw withdrawal threshold (Chung model rats; [4]): 9.67±1.73 g and 9.67 ± 1.73 ▴* g; contralateral Paw withdrawal threshold (Chung model rats; [5]): 15.00 ± 0.00 g; ipsilateral Paw withdrawal threshold (Chung model rats; [5]): 8.17±1.60 g and 8.17 ± 1.60 ^ g; contralateral Paw withdrawal threshold (Chung model rats; [6]): 14.17 ± 0.83 g; ipsilateral Paw withdrawal threshold (Chung model rats; [6]): 3.33 ± 0.42 g
5 | 47 (RAVESS) [compound 47] | as effective |  | 2 |  | 1 |  | PMN activity score (HKx31 (H3N2); [1]): 0
6 | 8 (CSGRVSECGF; disulfide 1-8) [compound 8] |  |  |  |  |  |  | Estimated Activity in A549 proliferation + stress assay (A549 cells): Inactive
7 | ALNSS [SEQ ID NO: 63] |  |  |  |  |  |  | contralateral Paw withdrawal threshold (Chung model rats; [7]): 15.00 ± 0.00 g; ipsilateral Paw withdrawal threshold (Chung model rats; [7]): 10.67 ± 1.67 ▴** g; contralateral Paw withdrawal threshold (Chung model rats; [8]): 15.00 ± 0.00 g; ipsilateral Paw withdrawal threshold (Chung model rats; [8]): 10.67 ± 1.67 g; contralateral Paw withdrawal threshold (Chung model rats; [9]): 14.17 ± 0.83 g; ipsilateral Paw withdrawal threshold (Chung model rats; [9]): 11.50 ± 1.80 ▴** g; contralateral Paw withdrawal threshold (Chung model rats; [10]): 14.17 ± 0.83 g; ipsilateral Paw withdrawal threshold (Chung model rats; [10]): 11.50 ± 1.80 g; contralateral Paw withdrawal threshold (Chung model rats; [11]): 15.00 ± 0.00 g; ipsilateral Paw withdrawal threshold (Chung model rats; [11]): 10.17 ± 1.17 ▴** g; contralateral Paw withdrawal threshold (Chung model rats; [12]): 15.00 ± 0.00 g; ipsilateral Paw withdrawal threshold (Chung model rats; [12]): 10.17 ± 1.17 g; contralateral Paw withdrawal threshold (Chung model rats; [13]): 15.00 ± 0.00 g; ipsilateral Paw withdrawal threshold (Chung model rats; [13]): 3.33 ± 0.42 g; contralateral Paw withdrawal threshold (Chung model rats; [14]): 15.00 ± 0.00 g; ipsilateral Paw withdrawal threshold (Chung model rats; [14]): 3.33 ± 0.42 g
8 | SVEGS [SEQ ID NO: 62] |  |  |  |  |  |  | contralateral Paw withdrawal threshold (Chung model rats; [15]): 15.00 ± 0.00 g; ipsilateral Paw withdrawal threshold (Chung model rats; [15]): 11.17 ± 1.74 ▴** g; contralateral Paw withdrawal threshold (Chung model rats; [16]): 15.00 ± 0.00 g; ipsilateral Paw withdrawal threshold (Chung model rats; [16]): 12.67 ± 1.56 ▴*** g; contralateral Paw withdrawal threshold (Chung model rats; [17]): 15.00 ± 0.00 g; ipsilateral Paw withdrawal threshold (Chung model rats; [17]): 11.00 ± 1.41 ▴** g; contralateral Paw withdrawal threshold (Chung model rats; Pre-dosing, 3 mg/kg group): 15.00 ± 0.00 g; ipsilateral Paw withdrawal threshold (Chung model rats; Pre-dosing, 3 mg/kg group): 3.33 ± 0.42 g
9 | 52 (PALNTS) [compound 52] | as effective | effective | 2 |  | 2 | did not show any changes | PMN activity score (HKx31 (H3N2); [1]): 0
10 | 41 (RALNSS; SITE 1 Arg 1 is bonded to Ser 6; SITE 6 Ser 6 is bonded to Arg 1) [compound 41] |  |  |  | 1 |  | relatively less effective | 
11 | 29 (RIIHNN) [compound 29] | as effective | effective | 2 | 2 | 2 | as effective | 
12 | 57 (RSVE) [compound 57] |  |  |  | 1 |  | relatively less effective | BAL IL-6 activity score (HKx31 (H3N2); IL-6 in BAL fluid, single 10 mg/kg dose, relative to SEQ ID NO:38): 0; Viral titre activity score (HKx31 (H3N2); [2]): 0
13 | 43 (RALRTK) [compound 43] |  |  |  |  |  | did not show any changes | 
14 | 11 (SCRSRPVESSC) [compound 11] |  |  |  |  |  |  | Estimated Activity in A549 proliferation + stress assay (A549 cells): Inactive; restoration of A549 viability (A549 cells; Taxol-treated A549 cells): did not
15 | 44 (HIVESS) [compound 44] | as effective |  | 2 |  | 1 | did not show any changes | PMN activity score (HKx31 (H3N2); [1]): 0
16 | 50 (RALQSS) [compound 50] | as effective | effective | 2 | 1 | 2 | relatively less effective | 
